Results on 18 compounds are retold here after patent publication US12540131B2 (Merck Sharp & Dohme LLC, priority 2019, dated 2026).

The target of the test is GST tagged truncated human mutant G2019S LRRK2 (Homo sapiens (Human), UniProt Q5S007, G2019S). The test can be described thus: LRRK2 Km ATP LanthaScreen Assay. Conditions: G2019S LRRK2, 134 μM ATP (Km ATP), mean values. It counts as biochemical. In a few lines: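 Enzyme (GST-tagged, truncated) was preincubated with compound for 15 min at RT in 50 mM Tris pH 8.5, 10 mM MgCl2, 0.01% Brij-35, 1 mM EGTA, 2 mM DTT and 0.05 mM orthovanadate. Fluorescein-LRRKtide and 134 μM ATP (Km) were then added for 90 min. EDTA and Tb-anti-pERM antibody stopped the reaction; the TR-FRET 520/495 ratio gave 4-parameter IC50s, reported as mean pIC50.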
Chain of GST tagged truncated human mutant G2019S LRRK2 (Q5S007 970-2527 G2019S): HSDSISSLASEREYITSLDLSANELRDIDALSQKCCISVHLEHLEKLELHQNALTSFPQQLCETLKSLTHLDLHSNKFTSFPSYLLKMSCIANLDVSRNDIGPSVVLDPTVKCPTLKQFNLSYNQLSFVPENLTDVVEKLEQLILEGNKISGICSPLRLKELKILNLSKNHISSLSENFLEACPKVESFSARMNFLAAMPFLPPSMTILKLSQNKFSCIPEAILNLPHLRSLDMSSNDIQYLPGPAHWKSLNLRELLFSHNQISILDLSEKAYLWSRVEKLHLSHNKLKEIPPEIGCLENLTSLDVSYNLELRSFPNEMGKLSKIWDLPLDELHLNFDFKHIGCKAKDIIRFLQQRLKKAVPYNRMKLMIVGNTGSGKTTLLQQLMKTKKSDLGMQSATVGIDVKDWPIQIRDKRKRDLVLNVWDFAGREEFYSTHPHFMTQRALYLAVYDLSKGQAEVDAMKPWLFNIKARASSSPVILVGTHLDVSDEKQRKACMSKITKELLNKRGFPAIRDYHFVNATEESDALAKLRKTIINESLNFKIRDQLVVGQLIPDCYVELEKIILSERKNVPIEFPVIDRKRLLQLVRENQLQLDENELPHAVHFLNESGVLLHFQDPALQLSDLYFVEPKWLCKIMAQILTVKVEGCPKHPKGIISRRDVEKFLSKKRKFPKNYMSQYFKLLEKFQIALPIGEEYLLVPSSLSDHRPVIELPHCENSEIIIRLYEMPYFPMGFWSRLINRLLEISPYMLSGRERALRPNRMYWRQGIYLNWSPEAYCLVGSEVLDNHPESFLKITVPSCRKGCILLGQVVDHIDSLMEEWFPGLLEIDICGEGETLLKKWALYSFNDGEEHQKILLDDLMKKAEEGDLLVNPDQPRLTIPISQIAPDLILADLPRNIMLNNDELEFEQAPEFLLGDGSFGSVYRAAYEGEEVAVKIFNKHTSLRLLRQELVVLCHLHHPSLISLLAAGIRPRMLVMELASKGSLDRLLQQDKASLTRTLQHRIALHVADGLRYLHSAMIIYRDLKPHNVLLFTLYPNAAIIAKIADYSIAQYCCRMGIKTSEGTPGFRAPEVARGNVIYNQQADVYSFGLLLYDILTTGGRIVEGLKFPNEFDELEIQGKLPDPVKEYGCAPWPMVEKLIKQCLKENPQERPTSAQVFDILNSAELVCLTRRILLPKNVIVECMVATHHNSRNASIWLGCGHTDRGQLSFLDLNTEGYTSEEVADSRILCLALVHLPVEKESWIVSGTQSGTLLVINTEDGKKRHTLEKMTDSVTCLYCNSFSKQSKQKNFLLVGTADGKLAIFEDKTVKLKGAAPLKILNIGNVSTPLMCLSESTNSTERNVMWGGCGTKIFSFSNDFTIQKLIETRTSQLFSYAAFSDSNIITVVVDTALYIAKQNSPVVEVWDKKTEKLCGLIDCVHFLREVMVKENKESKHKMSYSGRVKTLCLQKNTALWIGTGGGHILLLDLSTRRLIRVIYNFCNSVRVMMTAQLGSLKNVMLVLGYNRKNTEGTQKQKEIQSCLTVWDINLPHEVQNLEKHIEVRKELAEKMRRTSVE
On to `Cc1c(Nc2ncc3cc(Cl)c([C@@H]4CCN(C5COC[C@H]5O)C[C@H]4F)cc3n2)cnn1C1CC1` (single isomer, unassigned) [Ex-4.128, (3S,4S)(3S,4S) or (3S,4S)(3R,4R) or (3R,4R)(3S,4S) or (3R,4R)(3R,4R) 4-[4-{6-chloro-2-[(1-cyclopropyl-5-methyl-1H-pyrazol-4-yl)amino]quinazolin-7-yl}-3-fluoropiperidin-1-yl]oxolan-3-ol], for which the “LRRK2 pIC50” value is recorded as 8.99. With `Cc1c(Nc2ncc3cc(Cl)c(C4CCN(C5COC[C@H]5O)[C@@H](C)C4)cc3n2)cnn1C1CC1` (single isomer, unassigned) [Ex-4.129, (3S,4S)(2S,4R) or (3S,4S)(2S,4S) or (3R,4R)(2S,4R) or (3R,4R)(2S,4S) (3 4-[4-{6-chloro-2-[(1-cyclopropyl-5-methyl-1H-pyrazol-4-yl)amino]quinazolin-7-yl}-2-methylpiperidin-1-yl]oxolan-3-ol] the figure was over 9.20. In the case of `Cc1c(Nc2ncc3cc(Cl)c(C4CCN(C5COC[C@@H]5O)[C@@H](C)C4)cc3n2)cnn1C1CC1` (single isomer, unassigned) [Ex-4.130, (3S,4S)(2S,4R) or (3S,4S)(2S,4S) or (3R,4R)(2S,4R) or (3R,4R)(2S,4S) (3 4-[4-{6-chloro-2-[(1-cyclopropyl-5-methyl-1H-pyrazol-4-yl)amino]quinazolin-7-yl}-2-methylpiperidin-1-yl]oxolan-3-ol] it was 8.97; in that of `Cc1c(Nc2ncc3cc(Cl)c(C4CCN([C@@H]5COC[C@@H]5O)CC4)cc3n2)cnn1C1CC1` (single isomer, unassigned) [Ex-4.131, (3S,4S) or (3R,4R) 4-(4-{6-chloro-2-[(1-cyclopropyl-5-methyl-1H-pyrazol-4-yl)amino]quinazolin-7-yl}piperidin-1-yl)oxolan-3-ol], 8.62; in that of `Cc1c(Nc2ncc3cc(Cl)c(C4CCN([C@H]5COC[C@H]5O)CC4)cc3n2)cnn1C1CC1` (single isomer, unassigned) [Ex-4.132, (3S,4S) or (3R,4R) 4-(4-{6-chloro-2-[(1-cyclopropyl-5-methyl-1H-pyrazol-4-yl)amino]quinazolin-7-yl}piperidin-1-yl)oxolan-3-ol], over 9.20. For `Cc1c(Nc2ncc3cc(Cl)c(C4CCN(C5COC5C)CC4)cc3n2)cnn1C(C)(C)C#N` (single isomer, unassigned) [Ex-4.133, (2R,3R) or (2S,3S) or (2S,3R) or (2R,3S) 2-[4-({6-chloro-7-[1-(2-methyloxetan-3-yl)piperidin-4-yl]quinazolin-2-yl}amino)-5-methyl-1H-pyrazol-1-yl]-2-methylpropanenitrile], the “LRRK2 pIC50” value came to 8.92. With `Cc1c(Nc2ncc3cc(Cl)c(C4CCN(C5COC5C)CC4)cc3n2)cnn1C(C)(C)C#N` (single isomer, unassigned) [Ex-4.134, (2R,3R) or (2S,3S) or (2S,3R) or (2R,3S) 2-[4-({6-chloro-7-[1-(2-methyloxetan-3-yl)piperidin-4-yl]quinazolin-2-yl}amino)-5-methyl-1H-pyrazol-1-yl]-2-methylpropanenitrile] the figure was over 9.20; with `Cc1cc2cnc(Nc3cnn(C4CC4)c3Cl)nc2cc1[C@@H]1CCN(C2COC[C@@H]2O)C[C@H]1F` (single isomer, unassigned) [Ex-4.135, (3S,4S)(3S,4S) or (3S,4S)(3R,4R) or (3R,4R)(3S,4S) or (3R,4R)(3R,4R) 4-(4-{2-[(5-chloro-1-cyclopropyl-1H-pyrazol-4-yl)amino]-6-methylquinazolin-7-yl}-3-fluoropiperidin-1-yl)oxolan-3-ol], over 9.20. With `Cc1cc2cnc(Nc3cnn(C4CC4)c3Cl)nc2cc1[C@@H]1CCN(C2COC[C@H]2O)C[C@H]1F` (single isomer, unassigned) [Ex-4.136, (3S,4S)(3S,4S) or (3S,4S)(3R,4R) or (3R,4R)(3S,4S) or (3R,4R)(3R,4R) 4-(4-{2-[(5-chloro-1-cyclopropyl-1H-pyrazol-4-yl)amino]-6-methylquinazolin-7-yl}-3-fluoropiperidin-1-yl)oxolan-3-ol], the “LRRK2 pIC50” value was determined as 8.41. As to `Cc1cc2cnc(Nc3cnn(C4CC4(F)F)c3Cl)nc2cc1[C@@H]1CCN(C2COC[C@@H]2O)C[C@H]1F` (single isomer, unassigned) [Ex-4.137, (R)(3S,4S)(3S,4S) or (R)(3S,4S)(3R,4R) or (R)(3R,4R)(3S,4S) or (R)(3R,4R)(3R,4R) or (S)(3S,4S)(3S,4S) or (S)(3S,4S)(3R,4R) or (S)(3R,4R)(3S,4S) or (S)(3R,4R)(3R,4R) 4-[4-(2-{[5-chloro-1-(2,2-difluorocyclopropyl)-1H-pyrazol-4-yl]amino}-6-methylquinazolin-7-yl)-3-fluoropiperidin-1-yl]oxolan-3-ol], the “LRRK2 pIC50” value is on record as over 9.20. Take `Cc1cc2cnc(Nc3cnn(C4CC4(F)F)c3Cl)nc2cc1[C@@H]1CCN(C2COC[C@H]2O)C[C@H]1F` (single isomer, unassigned) [Ex-4.138, (R)(3S,4S)(3S,4S) or (R)(3S,4S)(3R,4R) or (R)(3R,4R)(3S,4S) or (R)(3R,4R)(3R,4R) or (S)(3S,4S)(3S,4S) or (S)(3S,4S)(3R,4R) or (S)(3R,4R)(3S,4S) or (S)(3R,4R)(3R,4R) 4-[4-(2-{[5-chloro-1-(2,2-difluorocyclopropyl)-1H-pyrazol-4-yl]amino}-6-methylquinazolin-7-yl)-3-fluoropiperidin-1-yl]oxolan-3-ol]: the “LRRK2 pIC50” value came out at 8.44. In the case of `Cc1cc2cnc(Nc3cnn(C4CC4(F)F)c3Cl)nc2cc1[C@H]1CCN(C2COC[C@@H]2O)C[C@@H]1F` (single isomer, unassigned) [Ex-4.139, (R)(3S,4S)(3S,4S) or (R)(3S,4S)(3R,4R) or (R)(3R,4R)(3S,4S) or (R)(3R,4R)(3R,4R) or (S)(3S,4S)(3S,4S) or (S)(3S,4S)(3R,4R) or (S)(3R,4R)(3S,4S) or (S)(3R,4R)(3R,4R) 4-[4-(2-{[5-chloro-1-(2,2-difluorocyclopropyl)-1H-pyrazol-4-yl]amino}-6-methylquinazolin-7-yl)-3-fluoropiperidin-1-yl]oxolan-3-ol] it was over 9.20; in that of `Cc1cc2cnc(Nc3cnn(C4CC4(F)F)c3Cl)nc2cc1[C@H]1CCN(C2COC[C@H]2O)C[C@@H]1F` (single isomer, unassigned) [Ex-4.140, (R)(3S,4S)(3S,4S) or (R)(3S,4S)(3R,4R) or (R)(3R,4R)(3S,4S) or (R)(3R,4R)(3R,4R) or (S)(3S,4S)(3S,4S) or (S)(3S,4S)(3R,4R) or (S)(3R,4R)(3S,4S) or (S)(3R,4R)(3R,4R) 4-[4-(2-{[5-chloro-1-(2,2-difluorocyclopropyl)-1H-pyrazol-4-yl]amino}-6-methylquinazolin-7-yl)-3-fluoropiperidin-1-yl]oxolan-3-ol], 9.19; in that of `Cc1cc2cnc(Nc3cnn(C4CC4(F)F)c3C)nc2cc1C1CCN([C@H]2COC[C@H]2O)CC1` (single isomer, unassigned) [Ex-4.141, (R)(3S,4S) or (S)(3S,4S) or (R)(3R,4R) or (S)(3R,4R) 4-[4-(2-{[1-(2,2-difluorocyclopropyl)-5-methyl-1H-pyrazol-4-yl]amino}-6-methylquinazolin-7-yl)piperidin-1-yl]oxolan-3-ol], over 9.20.

With `Cc1cc2cnc(Nc3cnn(C4CC4(F)F)c3C)nc2cc1C1CCN([C@@H]2COC[C@@H]2O)CC1` (single isomer, unassigned) [Ex-4.142, (R)(3S,4S) or (S)(3S,4S) or (R)(3R,4R) or (S)(3R,4R) 4-[4-(2-{[1-(2,2-difluorocyclopropyl)-5-methyl-1H-pyrazol-4-yl]amino}-6-methylquinazolin-7-yl)piperidin-1-yl]oxolan-3-ol], the “LRRK2 pIC50” value was 8.94. Regarding `Cc1cc2cnc(Nc3cnn(C4CC4(F)F)c3C)nc2cc1[C@@H]1CCN([C@H]2COC[C@H]2O)C[C@H]1F` (single isomer, unassigned) [Ex-4.143, (R)(3S,4S)(3S,4S) or (R)(3S,4S)(3R,4R) or (R)(3R,4R)(3S,4S) or (R)(3R,4R)(3R,4R) or (S)(3S,4S)(3S,4S) or (S)(3S,4S)(3R,4R) or (S)(3R,4R)(3S,4S) or (S)(3R,4R)(3R,4R) 4-[4-(2-{[1-(2,2-difluorocyclopropyl)-5-methyl-1H-pyrazol-4-yl]amino}-6-methylquinazolin-7-yl)-3-fluoropiperidin-1-yl]oxolan-3-ol], the “LRRK2 pIC50” value is on record as over 9.20. In the case of `Cc1cc2cnc(Nc3cnn(C4CC4(F)F)c3C)nc2cc1[C@@H]1CCN([C@@H]2COC[C@@H]2O)C[C@H]1F` (single isomer, unassigned) [Ex-4.144, (R)(3S,4S)(3S,4S) or (R)(3S,4S)(3R,4R) or (R)(3R,4R)(3S,4S) or (R)(3R,4R)(3R,4R) or (S)(3S,4S)(3S,4S) or (S)(3S,4S)(3R,4R) or (S)(3R,4R)(3S,4S) or (S)(3R,4R)(3R,4R) 4-[4-(2-{[1-(2,2-difluorocyclopropyl)-5-methyl-1H-pyrazol-4-yl]amino}-6-methylquinazolin-7-yl)-3-fluoropiperidin-1-yl]oxolan-3-ol] it was 8.68; in that of `Cc1cc2cnc(Nc3cnn(C4CC4(F)F)c3Cl)nc2cc1[C@@H]1CCN([C@H]2COC[C@H]2O)C[C@H]1F` (single isomer, unassigned) [Ex-4.145, (R)(3S,4S)(3S,4S) or (R)(3S,4S)(3R,4R) or (R)(3R,4R)(3S,4S) or (R)(3R,4R)(3R,4R) or (S)(3S,4S)(3S,4S) or (S)(3S,4S)(3R,4R) or (S)(3R,4R)(3S,4S) or (S)(3R,4R)(3R,4R) 4-[4-(2-{[5-chloro-1-(2,2-difluorocyclopropyl)-1H-pyrazol-4-yl]amino}-6-methylquinazolin-7-yl)-3-fluoropiperidin-1-yl]oxolan-3-ol], over 9.20.
